Measured values as given in US20090182020A1, “SUBSTITUTED BIS(HETERO)AROMATIC N--ETHYLPROPIOLAMIDES AND USE THEREOF FOR PRODUCTION OF MEDICAMENTS” (GRUNENTHAL GMBH, priority 2005, published 2009).

Columns and labels:
mGluR5 receptor (pig) = target: T1, mGluR5 receptor (pig) (Sus scrofa, UniProt I3LUI7); experiment: [3H]-MPEP bond in the mGluR5 receptor bond assay (pig brain homogenate); assay type: binding; conditions: 5 nM [3H]-MPEP; pig brain homogenate
T1 construct: 450 μg protein from brain homogenate is incubated with 5 nM ^3[H]-MPEP; from tissue; host or cells: pig brain halves without medulla, cerebellum and pons
Experimental: I. Method for Determining the Inhibition of the [^3H]-MPEP Bond in the mGluR5 Receptor Bond Assay
Pig brain homogenate is produced by homogenisation (Polytron PT 3000, Kinematica AG, 10,000 rpm for 90 seconds) of pig brain halves without medulla, cerebellum and pons in buffer pH 8.0 (30 mM Hepes, Sigma, order no. H3375+1 tablet complete to 100 ml, Roche Diagnostics, order no. 1836145) in the ratio 1:20 (brain weight/volume) and differential centrifugation at 900×g and 40,000×g. In each case, 450 μg protein from brain homogenate is incubated with 5 nM ^3[H]-MPEP (Tocris, order no. […]
Thereafter, the batches are filtered with the help of a Brandel Cell Harvester (Brandel, TYP Robotic 9600) on unifilter plates with glass fibre filter mats (Perkin Elmer, order no. 6005177) and subsequently washed with buffer (as above) 3 times with in each case 250 μl per sample. The filter plates are subsequently dried for 60 min at 55° C. 30 μL Ultima Gold™ scintillator (Packard BioScience, order no. 6013159) is subsequently added per well and the samples are measured after 3 hours on the β-counter (Mikrobeta, Perkin Elmer). The unspecific bond is determined by addition of 10 μM MPEP (Tocris, order no. 1212).

rats = experiment: Formaline test in rats (phase 2, pain rate); assay type: in vivo, rat; conditions: i.v. administration at 21.5 mg/kg, formaline test phase 2
Experimental: III. Formaline Test in Rats:
The formaline test (Dubuisson, D. and Dennis, S. G., 1977, Pain, 4, 161-174) represents a model for acute and chronic pain. A biphasic nociceptive reaction, which is recorded by observation of three clearly differentiable behavioural patterns, is induced by a single formaline injection into the dorsal side of a rear paw in freely mobile test animals. The reaction has two phases: Phase 1=Immediate reaction (duration up to 10 min; paw shaking, licking), Phase 2=Late reaction (after a rest phase; likewise, paw shaking, licking; duration up to 60 min). The 1st phase reflects a direct stimulation of the peripheral nocisensors with high spinal nociceptive input or glutamate release (acute pain phase); the 2nd phase reflects a spinal and peripheral hypersensitisation (chronic pain phase). In the investigations presented here, the chronic pain component (phase 2) was evaluated.
Formaline with a volume of 50 μl and a concentration of 5% is administered subcutaneously into the dorsal side of the right rear paw of each animal. […] The calculation of PR is performed on the basis of a numerical weighting (=in each case factor 1, 2, 3) of the observed forms of behaviour (corresponding behavioural score 1, 2, 3) and is calculated with the following formula: […]

T1 sequence (I3LUI7 19-1212): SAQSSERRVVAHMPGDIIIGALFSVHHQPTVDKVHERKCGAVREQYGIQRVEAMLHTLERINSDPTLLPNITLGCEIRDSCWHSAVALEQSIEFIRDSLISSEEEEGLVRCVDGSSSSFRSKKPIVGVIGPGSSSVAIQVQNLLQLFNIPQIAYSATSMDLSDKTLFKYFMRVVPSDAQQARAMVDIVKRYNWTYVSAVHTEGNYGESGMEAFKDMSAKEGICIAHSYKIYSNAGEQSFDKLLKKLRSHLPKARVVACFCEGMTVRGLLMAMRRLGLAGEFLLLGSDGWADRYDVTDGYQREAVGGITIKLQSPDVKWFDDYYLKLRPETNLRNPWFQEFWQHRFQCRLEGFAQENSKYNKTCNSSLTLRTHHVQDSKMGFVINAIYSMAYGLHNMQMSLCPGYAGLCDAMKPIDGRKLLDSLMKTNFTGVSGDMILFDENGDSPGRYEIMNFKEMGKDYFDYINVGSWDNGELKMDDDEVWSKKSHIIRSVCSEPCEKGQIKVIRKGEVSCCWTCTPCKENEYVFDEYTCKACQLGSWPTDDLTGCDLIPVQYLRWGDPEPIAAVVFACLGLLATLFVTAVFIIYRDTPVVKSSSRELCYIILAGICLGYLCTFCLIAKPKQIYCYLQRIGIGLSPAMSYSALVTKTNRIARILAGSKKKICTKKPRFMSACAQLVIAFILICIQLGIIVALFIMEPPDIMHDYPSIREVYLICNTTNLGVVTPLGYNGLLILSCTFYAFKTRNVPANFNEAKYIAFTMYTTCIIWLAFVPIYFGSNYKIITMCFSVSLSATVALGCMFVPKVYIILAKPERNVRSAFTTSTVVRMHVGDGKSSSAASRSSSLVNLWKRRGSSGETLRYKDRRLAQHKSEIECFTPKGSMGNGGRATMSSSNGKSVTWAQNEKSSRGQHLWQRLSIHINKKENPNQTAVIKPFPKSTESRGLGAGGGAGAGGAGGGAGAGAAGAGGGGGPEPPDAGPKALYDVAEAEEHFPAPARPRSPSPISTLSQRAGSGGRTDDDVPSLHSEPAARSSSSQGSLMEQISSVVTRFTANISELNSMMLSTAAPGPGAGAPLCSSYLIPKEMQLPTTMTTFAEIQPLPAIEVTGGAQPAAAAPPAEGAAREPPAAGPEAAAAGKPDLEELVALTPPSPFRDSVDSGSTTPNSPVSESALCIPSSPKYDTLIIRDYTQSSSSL

Row | Compound | IC50 (mGluR5 receptor (pig)) [nM] | inhibition of the pain reaction (rats) [%]
1 | CN(CCc1ccccc1)C(=O)C#Cc1cccc(Cl)c1 [Example 1, 3-(3-chlorophenyl)-N-methyl-N-phenethylpropiolamide] | 12 | 60
2 | CN(CCc1ccncc1)C(=O)C#Cc1cccc(Cl)c1 [Example 244, 3-(3-chlorophenyl)-N-methyl-N-(2-(pyridine-4-yl)ethyl)propiolamide] | 23 | –
3 | CN(CCc1cccs1)C(=O)C#Cc1cccc(Cl)c1 [Example 245, 3-(3-chlorophenyl)-N-methyl-N-(2-(thiophene-2-yl)ethyl)propiolamide] | 11 | –
4 | CC(Cc1cccnc1)NC(=O)C#Cc1cccc(Cl)c1 (stereo not shown) [Example 246, 3-(3-chlorophenyl)-N-(1-(pyridine-3-yl)propane-2-yl)propiolamide] | 10 | –
5 | CC(Cc1cccnc1)N(C)C(=O)C#Cc1cccc(Cl)c1 (stereo not shown) [Example 247, 3-(3-chlorophenyl)-N-methyl-N-(1-(pyridine-3-yl)propane-2-yl)propiolamide] | 140 | –
6 | Cc1ncccc1CCNC(=O)C#Cc1cccc(Cl)c1 [Example 248, 3-(3-chlorophenyl)-N-(2-(2-methylpyridine-3-yl)ethyl)propiolamide] | 260 | –
7 | Cc1ncccc1CCN(C)C(=O)C#Cc1cccc(Cl)c1 [Example 249, 3-(3-chlorophenyl)-N-methyl-N-(2-(2-methylpyridine-3-yl)ethyl)propiolamide] | 120 | –
8 | O=C(C#Cc1cccc(Cl)c1)NCCc1ccccc1C(F)(F)F [Example 250, 3-(3-chlorophenyl)-N-(2-(trifluoromethyl)phenethyl)propiolamide] | 33 | –
9 | CN(CCc1ccccc1C(F)(F)F)C(=O)C#Cc1cccc(Cl)c1 [Example 251, 3-(3-chlorophenyl)-N-methyl-N-(2-(trifluormethyl)phenethyl)propiolamide] | 28 | –
